Measurements from article PMC6303142 (Saudi Journal of Biological Sciences, 2016).
Converted amounts (≈) assume the structure as drawn. Where two headings read alike, the source gives them in different places.

Key:
[1] = system: Staphylococcus aureus; test: Broth microdilution MIC/MBC against planktonic cells; type: cell-based
[2] = system: S. aureus (ATCC 25923 and F7 strains) biofilm; test: Biofilm formation; type: cell-based, Staphylococcus aureus; settings: 1/2 MIC, 24 h, F7 and ATCC 25923 strains, crystal violet
[3] = system: S. aureus F7 strain; test: Electron microscopy; type: cell-based, Staphylococcus aureus; settings: DHC at MIC, 24 h, SEM and TEM
[4] = system: sPLA2; type: biochemical
[5] = target: T1, soybean LOX-1 (Glycine max, UniProt P08170); test: Lipoxygenase; type: biochemical
T1 sequence (P08170 1-839): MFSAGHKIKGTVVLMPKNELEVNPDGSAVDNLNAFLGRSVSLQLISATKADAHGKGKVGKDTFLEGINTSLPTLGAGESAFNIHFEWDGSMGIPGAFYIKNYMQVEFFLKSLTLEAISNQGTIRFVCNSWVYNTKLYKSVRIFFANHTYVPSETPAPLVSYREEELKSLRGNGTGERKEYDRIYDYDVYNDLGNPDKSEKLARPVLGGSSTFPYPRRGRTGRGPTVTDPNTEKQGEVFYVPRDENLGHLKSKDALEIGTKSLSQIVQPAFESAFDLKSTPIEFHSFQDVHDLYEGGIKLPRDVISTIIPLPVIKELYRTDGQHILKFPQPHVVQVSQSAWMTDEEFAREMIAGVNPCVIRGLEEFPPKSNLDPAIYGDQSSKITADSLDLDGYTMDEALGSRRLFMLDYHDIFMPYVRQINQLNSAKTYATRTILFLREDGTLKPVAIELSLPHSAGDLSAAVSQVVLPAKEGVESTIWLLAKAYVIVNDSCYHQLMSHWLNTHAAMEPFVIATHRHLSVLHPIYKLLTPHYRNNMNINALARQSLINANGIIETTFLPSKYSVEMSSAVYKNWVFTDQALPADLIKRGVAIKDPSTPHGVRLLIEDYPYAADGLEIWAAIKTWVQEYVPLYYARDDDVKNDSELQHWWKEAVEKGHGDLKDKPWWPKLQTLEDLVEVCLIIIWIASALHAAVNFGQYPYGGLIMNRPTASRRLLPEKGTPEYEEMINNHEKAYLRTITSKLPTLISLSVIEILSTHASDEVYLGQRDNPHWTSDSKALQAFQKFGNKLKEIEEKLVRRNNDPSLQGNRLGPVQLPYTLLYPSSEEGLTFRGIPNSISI

[6] = target: T2, COX-2 (Homo sapiens, UniProt P35354); test: Cyclooxygenase; type: biochemical
T2 sequence (P35354 18-604): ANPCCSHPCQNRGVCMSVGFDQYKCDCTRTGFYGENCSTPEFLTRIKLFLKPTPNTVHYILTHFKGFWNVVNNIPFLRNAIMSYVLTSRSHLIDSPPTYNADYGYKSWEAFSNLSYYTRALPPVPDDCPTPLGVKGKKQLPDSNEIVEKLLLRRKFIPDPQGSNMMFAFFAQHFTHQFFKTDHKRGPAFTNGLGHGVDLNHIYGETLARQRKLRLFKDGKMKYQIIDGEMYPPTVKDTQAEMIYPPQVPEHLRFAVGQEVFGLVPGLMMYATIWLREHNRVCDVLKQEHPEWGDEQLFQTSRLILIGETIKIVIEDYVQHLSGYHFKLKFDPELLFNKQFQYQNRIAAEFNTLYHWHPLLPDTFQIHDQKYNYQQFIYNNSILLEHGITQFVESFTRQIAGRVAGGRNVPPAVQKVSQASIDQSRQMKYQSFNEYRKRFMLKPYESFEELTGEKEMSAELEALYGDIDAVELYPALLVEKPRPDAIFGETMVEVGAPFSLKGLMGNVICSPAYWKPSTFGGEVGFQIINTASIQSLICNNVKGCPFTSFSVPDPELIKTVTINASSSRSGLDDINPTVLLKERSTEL

[7] = system: human hepatoma HepG2 cells; settings: ref Zampini et al. (2008); cited from earlier work
[8] = system: Artemia salina; test: General
[9] = ATCC29213, S. aureus ATCC 29213, control strain
[10] = S. aureus clinical isolate 5 (F5), Met^r Oxa^r
[11] = S. aureus clinical isolate 7 (F7), Met^r Oxa^r Gen^r
[12] = S. aureus clinical isolate 8 (F8), Met^r Oxa^r
[13] = S. aureus clinical isolate 23 (F23), Met^r Oxa^r
[14] = S. aureus clinical isolate 31 (F31), Met^r Oxa^r Van^s

SMILES | MBC [1, 9] [µg/mL] | MIC [1, 9] [µg/mL] | MBC [1, 10] [µg/mL] | MIC [1, 10] [µg/mL] | MBC [1, 11] [µg/mL] | MIC [1, 11] [µg/mL] | MBC [1, 12] [µg/mL] | MIC [1, 12] [µg/mL] | MBC [1, 13] [µg/mL] | MIC [1, 13] [µg/mL] | MBC [1, 14] [µg/mL] | MIC [1, 14] [µg/mL] | Inhibition (%) sPLA2 ([4]; 10 μg/mL) [%] | IC50 [5] [µM] | IC50 [6] [µM] | also measured
O=C(/C=C/c1ccccc1)c1ccc(O)cc1O [DHC, 2′,4′-dihydroxychalcone] | 50 (≈ 208 µM) | 50 (≈ 208 µM) | 100 (≈ 416 µM) | 25 (≈ 104 µM) | 100 (≈ 416 µM) | 25 (≈ 104 µM) | 100 (≈ 416 µM) | 25 (≈ 104 µM) | 200 (≈ 832 µM) | 25 (≈ 104 µM) | 200 (≈ 832 µM) | 100 (≈ 416 µM) | 60.50 ± 2.90 | 414 | 7.16 | biofilm formation inhibition [2]: most active pure compound; morphological changes in the cell appearance [3]: visible cellular aggregation, blebs on the cellular surface and cytoplasmic coagulation; genotoxicity [7]: did not find genotoxicity
O=c1c(O)c(-c2ccccc2)oc2cc(O)ccc12 [DHF, 3,7-dihydroxyflavone] | > 500 | 400 (≈ 1570 µM) | > 500 | 200 (≈ 787 µM) | > 500 | 200 (≈ 787 µM) | 400 (≈ 1570 µM) | 25 (≈ 98.3 µM) | > 500 | 200 (≈ 787 µM) | > 500 | 200 (≈ 787 µM) | 2.70 ± 0.20 | 227 | 100 | activity on sPLA2 ([4]; at the concentration assayed (10 μg/mL)): not active
COc1c(O)ccc(C(=O)/C=C/c2ccccc2)c1O [DHMC, 2′,4′-dihydroxy-3′-methoxychalcone] | 200 (≈ 740 µM) | 200 (≈ 740 µM) | 200 (≈ 740 µM) | 200 (≈ 740 µM) | 200 (≈ 740 µM) | 200 (≈ 740 µM) | 200 (≈ 740 µM) | 200 (≈ 740 µM) | 200 (≈ 740 µM) | 100 (≈ 370 µM) | 200 (≈ 740 µM) | 200 (≈ 740 µM) | 38.18 ± 1.80 | 235 | – | activity against COX-2 ([6]; tested concentrations 10–150 μg/mL): not active
O=C1CC(c2ccccc2)Oc2cc(O)ccc21 (stereo not drawn) [HF, 7-hydroxyflavanone] | > 500 | – | > 500 | – | 200 (≈ 832 µM) | – | > 500 | – | > 500 | – | > 500 | – | – | – | – | –
COc1ccc2cc([C@H](C)C(=O)O)ccc2c1 [Naproxen, reference compound] | – | – | – | – | – | – | – | – | – | – | – | – | – | – | – | Inhibition (%) sPLA2 [4]: 6.00 ± 0.40%
[Na+].[Na+].[O]=[Cr](=[O])([O-])[O][Cr](=[O])(=[O])[O-] [sodium dichromate] | – | – | – | – | – | – | – | – | – | – | – | – | – | – | – | LC50 (concentration that kills 50% of the A. salina larvae) [8]: 30 µg/mL
